Measured values as given in patent US20040162467A1, “Non-invasive transudate extraction” (priority 2001, published 2004).
“And” between values parts separate entries of the source, which are not always exact repeats. Identical values can stand only once.

How the values were obtained:
[1] = Salivary cortisol during familiarization period; assay type: in vivo; details: sheep
Protocol: Twenty sheep (Romney cross ewes, 36-44 kg live weights) were farmed together as a flock for 14 days prior to experimentation. On each of these days, they were rounded up, penned, a patch on their backs (approximately 5 cm in diameter) shaved and SLS-UG or SLS-EG applied.
Two minutes later the electrosonophoresis device was placed briefly on this patch (not turned on). At the end of 1 h of penning saliva was collected using a plastic suction bulb positioned manually into the mouth of the sheep. In this manner the sheep were familiarized to the experimental procedure.

[2] = Serum, transdermal and saliva samples from sheep before, during and after exercise; details: for Saliva: 20-min saliva lag; for Exudate: transdermal
Protocol: (§1) Sodium lauryl sulfate (40%) and either a commercial ultrasound conductive gel (Aquasonic, Parker Lab., NJ 07004, USA) or a 10% ethanol gel (the two gels were alternated in use) are employed. These gels are designated SLS-UG and SLS-EG respectively herein. Collected SLS-UG and SLS-EG are assayed as for blood. Saliva was divided into two samples. The first sample is stored at −20° C. and assayed as for blood. The second sample is assayed at the time of experimentation using the apparatus and immunosensors described above.
(§2) Student t tests, ANOVA or Wilcoxon test for paired samples are made as appropriate. Statistical significance is taken at P≦0.05 level. For analysis across the exercise stress, data is grouped into pre, during and post exercise values as actual sample times relative to the exercise for transdermal and blood obtained values. For pre, during and post exercise grouping of saliva samples, a 20-min lag was allowed relative to blood and transdermal values in sheep and a 30-min lag in human subjects.
In the remaining 10 sheep, experimentation took place on three separate days, each 3 days apart. On days of experimentation, animals were penned as above and the jugular vein of the animal was catheterised. Animals were left to rest for 50 min and then a single ultrasound application applied for 1 min as above. […] A series of electrosonophoresis collections were made concurrently with blood collection from the jugular vein, every 5 min for a further 1 h. Saliva samples were collected on every second blood sample (i.e. every 10 min). At completion of this time, a human shepherd, intermittently for 30 min, then ran the animals around a paddock. During this 30 min, each animal was briefly restrained manually and sampled on all three parameters every 10 min (i.e. three samples repeated three times). At the end of this period, animals were repenned and rested for 10 min, and a further saliva collection was made. Following this saliva collection for a further 1-h period, collection as above, prior to exercise, was repeated. In this manner for each animal, in each session, 27 blood and transdermal samples and 16 saliva samples were collected.

[3] = Patients recovering in intensive care: blood versus ultrasound (US) levels; assay type: in vivo, human; details: one value per sample
[4] = Concentrations in transdermal exudate collected by different formats from sheep, versus serum
Protocol: as §1
Ten of these animals were used to develop the transdermal exudate collection technique. These 10 animals were penned as above, and a catheter inserted into the jugular vein using known techniques in the art. A mixture of sodium lauryl sulfate and either SLS-UG or SLS-EG was positioned onto the shaved area on the back of each animal. […] At the end of the hour, the remaining mix on the back was collected. The entire procedure was repeated three times. This mix was subject to assay (see below) for hormones and glucose content.
On the following day, one of the two gel mixes were rubbed on and, after 10 min, ultrasound (20 kHz, 10 W/cm^2, pulsed 5 s on/5 s off using an ITO Physiotherapy and rehabilitation unit, Tokyo 176-8605, Japan) applied for 1 min directly onto the mix. Ten minutes later, the mix was again collected and measured. This was then repeated with 2 min of the ultrasound application, and on a following day, the entire procedure repeated using the alternative gel mix on the shaved patch on the animal. Times greater than 2 min were not attempted due to potential risk of skin damage. Blood samples were collected at the time of ultrasound application and again at the time when the gel mix was also collected. The entire ultrasound procedure was then repeated on subsequent days with the addition of an application of a 9V electric field either side of the ultrasound head (in contact with skin).
On a separate day, in a further repeat of the above procedure; the collecting head (50) was positioned onto the ultrasound device. The ultrasound device was modified to ensure good coupling for use with the collecting head and delivery of needed parameters to the skin. The output of the device was reset to achieve the same energy and pulse delivery to the skin's surface as when the collecting head was not present, and the ultrasound device had been placed directly in contact with the gels (as described above). Three fluid flow rates into the collection chamber of the head were compared: 150, 300 and 600 μl/min. The effluent fluid was then assayed. On a final day, this was then repeated with the immunosensors positioned in the exit line from the chamber, with immunosensor measurement of the hormones made as has been described above.

[5] = Serum, transdermal and saliva samples from human subjects before, during and after exercise; details: for Saliva: 30-min saliva lag
Protocol: as §1, §2
Ten human volunteers (males aged 19-23, body weights 85-103 kg) were seated at 09:30 h. During the experiment, they were held at a room temperature of 20-22° C. An initial 1 min burst of ultrasound, as for the sheep (above), was made on the volar surface of the forearm, following application of SLS-EG mix. Ten minutes later, transdermal (electrosonophoresis) collection began from this site on this forearm, simultaneous to a venepuncture blood collection being made from the other. A saliva collection was then made, followed by a second, third and fourth saliva collection 20, 30 and 40 min after the blood sample. These measurements were repeated three times over 3 h (i.e. a total of three blood and transdermal samples and 12 saliva samples). In between each sampling series, subjects were allowed to walk around, eat lightly and drink water. Following this collection, the five volunteers exercised at moderate intensities, for 40 min (heart rates maintained in the range of 130-160 bpm) on a rowing machine, stopping briefly at 10, 20 and 30 min to give blood, transdermal and saliva samples. The subjects gave another set of samples at 40 min upon completion of rowing, then warmed down lightly with stretching exercises for a further 10 min and gave a further saliva sample at the end of this time. Two more saliva samples were collected at 60 and 70 min after exercise started. At the end of this time, sampling was repeated as above, prior to exercise, for a further 3 h. The entire procedure was repeated twice a week for 3 weeks (a total of six times). The distance rowed (m) represented the total work rate during the exercise.

[6] = Flow rate effect on analyte extraction (electrosonophoresis exudate versus serum); assay type: in vivo; details: for Sonified off membrane*: membrane sonicated in water bath
Protocol: Using the methods above for transudate and serum extraction, an experiment was conducted to determine the effect of flow rates through the head on testosterone recovery. Table 5 sets out the results of the experiment.
In a series of experiments (15 measures per flow rate) flow rates were compared for collection of testosterone in exudate from electrosonophoresis compared to that concurrently measured in serum of the subjects.

[7] = Trial of FIG. 1 device: blood levels versus ultrasound-extracted transudate levels
Excerpt: The device of shown in FIG. 1 has been trialed with four individuals. The device was assembled as set out above and was linked to a testosterone and ethanol detectors comprising a HPLC system and Electrochemical detector and a mass spectroscopy system. […] In turn, each subject placed their forearm on the device. The ultrasound generator was set to produce continuous pulsing, collimating ultrasonic energy at 1 MHz and 0.5 W/cm^2. The surface of delivery at the test site was approximately 5 cm^2. Collections were made from the skin surface of the forearm over a period of one minute. Blood samples were drawn simultaneously and analysed for comparison to the ultrasound samples.

[8] = sheep, SLS + 10% E + US 1 min + 9 V
[9] = sheep, SLS + 10% E + US 1 min + 9 V + Collection Head

With `C[C@]12CCC(=O)C=C1CC[C@@H]1[C@@H]2[C@@H](O)C[C@@]2(C)[C@H]1CC[C@]2(O)C(=O)CO` [Cortisol, cortisol] the Salivary value ([1]; Day 14) was 1.1 ± 0.9 ng/mL, the Salivary value ([1]; first day) was 6.4 ± 1.2 ng/mL and the Serum ([2]; 10 min Exercise) was 19.6 ± 5.1 ng/L. For the same compound, the Saliva ([2]; 10 min Exercise) was 1.51 ± 0.97 ng/L, the Exudate ([2]; 10 min Exercise) was 2.91 ± 0.83 ng/L and the Serum ([2]; 20 min Exercise) was 27.8 ± 4.6 ng/L. It also gave a Saliva ([2]; 20 min Exercise) of 2.35 ± 2.19 ng/L, an Exudate ([2]; 20 min Exercise) of 3.92 ± 1.01 ng/L and a Serum ([2]; 30 min Exercise) of 39.3 ± 7.4 ng/L. For the same compound, the Saliva ([2]; 30 min Exercise) was 2.44 ± 1.76 ng/L, the Serum ([2]; Postexercise) was 18.3 ± 4.9 ng/L and the Saliva ([2]; Postexercise) was 1.34 ± 1.81 ng/L. It also gave an Exudate ([2]; Postexercise) of 2.71 ± 0.55 ng/L, a Serum ([2]; Preexercise) of 11.9 ± 4.7 ng/L and a Saliva ([2]; Preexercise) of 1.07 ± 1.03 ng/L. The Exudate ([2]; Preexercise) was 1.71 ± 0.85 ng/L, the “Cortisol US” value [3] was 32.1 ng/mL and 37.4 ng/mL and 30.5 ng/mL and 39.7 ng/mL and 29.2 ng/mL and 36.4 ng/mL and 31.3 ng/mL and 45.9 ng/mL and the “Recovery as % of serum levels” value ([4]; in vivo) was 5%. For the same compound, the Serum ([5]; 0 min Exercise) was 29.5 ± 9.2 ng/L, the Saliva ([5]; 0 min Exercise) was 2.79 ± 1.13 ng/L and the Serum ([5]; 10 min Exercise) was 7.08 ± 11.5 ng/L. The Saliva ([5]; 10 min Exercise) was 8.01 ± 2.86 ng/L, the Serum ([5]; 20 min Exercise) was 91.3 ± 19.7 ng/L and the Saliva ([5]; 20 min Exercise) was 8.75 ± 4.31 ng/L. The Serum ([5]; 30 min Exercise) was 115.7 ± 15.8 ng/L, the Saliva ([5]; 30 min Exercise) was 10.04 ± 3.11 ng/L and the Serum ([5]; 40 min Exercise) was 109.4 ± 13.1 ng/L. The Saliva ([5]; 40 min Exercise) was 9.19 ± 3.76 ng/L, the Serum ([5]; Postexercise) was 49.6 ± 11.3 ng/L and the Saliva ([5]; Postexercise) was 4.02 ± 1.95 ng/L. The Serum ([5]; Preexercise) was 22.7 ± 8.1 ng/L and the Saliva ([5]; Preexercise) was 2.25 ± 1.04 ng/L.
For `C[C@]12CC[C@H]3[C@@H](CCC4=CC(=O)CC[C@@]43C)[C@@H]1CC[C@@H]2O` [Testosterone, testosterone], the Collected in exudate ([6]; flow rate 50 μl/min) was 0.05 to 0.09 ng/mL, the “Serum level at same time” value ([6]; flow rate 50 μl/min) was 1.9 to 2.5 ng/mL and the “Sonified off membrane*” value ([6]; flow rate 50 μl/min) was 0.1 to 0.2 ng/mL. For the same compound, the Collected in exudate ([6]; flow rate 100 μl/min) was 0.15 to 0.20 ng/mL, the “Serum level at same time” value ([6]; flow rate 100 μl/min) was 2.0 to 2.4 ng/mL and the “Sonified off membrane*” value ([6]; flow rate 100 μl/min) was 0.05 to 0.07 ng/mL. The Collected in exudate ([6]; flow rate 150 μl/min) was 0.2 to 0.3 ng/mL, the “Serum level at same time” value ([6]; flow rate 150 μl/min) was 1.9 to 2.6 ng/mL and the “Sonified off membrane*” value ([6]; flow rate 150 μl/min) was 0.01 to 0.02 ng/mL. For the same compound, the Collected in exudate ([6]; flow rate 200 μl/min) was 0.21 to 0.30 ng/mL, the “Serum level at same time” value ([6]; flow rate 200 μl/min) was 2.0 to 3.01 ng/mL and the “Sonified off membrane*” value ([6]; flow rate 200 μl/min) was 0.01 to 0.02 ng/mL. For the same compound, the Collected in exudate ([6]; flow rate 300 μl/min) was 0.12 to 0.17 ng/mL, the “Serum level at same time” value ([6]; flow rate 300 μl/min) was 1.9 to 2.8 ng/mL and the “Sonified off membrane*” value ([6]; flow rate 300 μl/min) was 0.08 to 0.12 ng/mL. For the same compound, the Serum ([4]; sheep, SLS + 10% E) was 0.9 ± 0.4 ng/mL, the Exudate ([4]; sheep, SLS + 10% E + US 1 min) was 0.02 ± 0.005 ng/mL and the “Relative recovery (exudate vs serum)” value ([4]; sheep, SLS + 10% E + US 1 min) was “(2%)”. For the same compound, the Serum ([4]; sheep, SLS + 10% E + US 1 min) was 0.9 ± 0.3 ng/mL, the Exudate [4, 8] was 0.05 ± 0.02 ng/mL and the “Relative recovery (exudate vs serum)” value [4, 8] was “(7%)”. For the same compound, the Serum [4, 8] was 0.7 ± 0.6 ng/mL, the Exudate [4, 9] was 0.11 ± 0.06 ng/mL and the “Relative recovery (exudate vs serum)” value [4, 9] was “(14%)”. For the same compound, the Serum [4, 9] was 0.8 ± 0.6 ng/mL, the Serum ([4]; sheep, SLS + UG) was 1.1 ± 0.6 ng/mL and the “Recovery as % of serum levels” value ([4]; sheep, gel mix with addition of ultrasound application) was 2%. For the same compound, the “Blood level 1#” value ([7]; day 1, 30 min following 1 hour training (aerobic) and oral 10% ethanol, one value per subject (1-4)) was 3 ng/mL and 7 ng/mL and 9 ng/mL and 4 ng/mL, the “Ultrasound level 1#” value ([7]; day 1, 30 min following 1 hour training and oral 10% ethanol, forearm, 1 MHz, 0.5 W/cm^2, 1 min, one value per subject) was 2 ng/ml (2×) and 4 ng/ml and 7 ng/ml and the “Ultrasound level 2*” value ([7]; repeat on day 3, forearm, 1 MHz, 0.5 W/cm^2, 1 min, one value per subject) was 4 ng/ml (2×) and 6 ng/ml and 3 ng/ml. For the same compound, the “Blood level 2*” value ([7]; repeat on day 3, one value per subject) was 5 ng/mL and 10 ng/mL and 8 ng/mL and 6 ng/mL.
